{"source": "patent US20090176835A1", "about": "“PHARMACEUTICAL COMPOSITION FOR SUPPRESSION OF THE EXPRESSION OF ATP CITRATE LYASE AND USE THEREOF” (Ajinomoto Co., Inc., priority 2002, published 2009)", "key": {"[1]": {"settings": "after 30 days' administration; patients without liver diseases (Drugs R&D 2(2):123 (1999)); cited from earlier work"}, "[2]": {"test": "Blood GOT and GPT as indices of liver function in patients with type 2 diabetes, 12 weeks oral nateglinide", "type": "in vivo, human", "settings": "for GOT, change (0 to 12 weeks) / GPT, change (0 to 12 weeks): decrease, p<0.05", "procedure": "Nateglinide was orally administered to patients with type 2 diabetes three times a day in a dose of usually […] before meals for 12 weeks. Blood GOT and GPT concentrations were determined as indices of the liver function in 0 week and 12th week. In analysis 1, the results obtained by the oral administration of nateglinide to 53 patients with type 2 diabetes each having fatty liver for 12 weeks were analyzed. In analysis 2, the results obtained by the oral administration of nateglinide to 16 cases of type-2 diabetes having liver disorders (GOT, GPT≧51 IU/L) were analyzed."}, "[3]": {"system": "rat ACL gene (GenBank ID: J05210)", "test": "Liver ACL expression analyzed with DNA chips, Experiment 1 (normal Wistar rats)", "type": "in vivo", "procedure": "The effect of nateglinide on the expression of liver ACL was analyzed with DNA chips. In Experiment 1, methylcellulose or 50 mg/kg of nateglinide suspended in methylcellulose was orally administered to normal Wistar rats fasted overnight. One hour after the administration, the liver was taken from each rat and freezed. The total RNA was extracted with RNeasy kit (Qiagen Co. Ltd). Biotinylated cRNA probe was prepared by a standard method and then it was hybridized to rat genome U34 array (Affymetrix Co. Ltd). The amount of cRNA hybridized to rat ACL gene (GenBank ID: J05210) was analyzed with Microarray Suite 5.0 software (Affymetrix Co. Ltd)."}, "[4]": {"system": "rat ACL gene (GenBank ID: J05210)", "test": "Liver ACL expression analyzed with DNA chips, Experiment 2 (GK rats)", "type": "in vivo", "procedure": "In Experiment 1, methylcellulose or 50 mg/kg of nateglinide suspended in methylcellulose was orally administered to normal Wistar rats fasted overnight. One hour after the administration, the liver was taken from each rat and freezed. The total RNA was extracted with RNeasy kit (Qiagen Co. Ltd). Biotinylated cRNA probe was prepared by a standard method and then it was hybridized to rat genome U34 array (Affymetrix Co. Ltd). The amount of cRNA hybridized to rat ACL gene (GenBank ID: J05210) was analyzed with Microarray Suite 5.0 software (Affymetrix Co. Ltd). Also in Experiment 2, 1 g/kg of glucose, 50 mg/kg of nateglinide or both of glucose and nateglinide were orally administered to Wistar rats and GK rats fasted overnight. One hour after the administration, the liver was taken from each rat and the expression of ACL level was analyzed with DNA chips in the same manner as that in Experiment 1."}, "[5]": {"test": "Insulin level in GK rat portal vein after nateglinide", "type": "in vivo", "settings": "after administration"}, "[6]": {"settings": "cited from earlier work"}, "[7]": {"settings": "analysis 1: 53 type 2 diabetes patients with fatty liver"}, "[8]": {"settings": "analysis 1: type 2 diabetes patients with fatty liver, 12 weeks"}, "[9]": {"settings": "analysis 2: 16 cases of type-2 diabetes with liver disorders"}, "[10]": {"settings": "analysis 2: type-2 diabetes with liver disorders, 12 weeks"}}}
{"compound": "CC(C)[C@H]1CC[C@H](C(=O)N[C@H](Cc2ccccc2)C(=O)O)CC1", "note": "[nateglinide, (−)-N-(trans-4-isopropylcyclohexanecarbonyl)-D-phenylalanine]", "values": [{"measurement": "Alterations in liver function", "setting": "[1]", "value": "no significant alterations"}, {"measurement": "GOT value after administration", "setting": "[2]; 5 cases with fatty liver and NASH-like liver troubles (GOT, GPT≧51 IU/L, GPT>GOT), reduced from 138.6±56.0", "value": "83.6±41.5", "unit": "IU/L"}, {"measurement": "GPT value after administration", "setting": "[2]; 5 cases with fatty liver and NASH-like liver troubles (GOT, GPT≧51 IU/L, GPT>GOT), reduced from 242.6±112.8", "value": "57.8±59.2", "unit": "IU/L"}, {"measurement": "GOT, 12th week", "setting": "[2]; analysis 1: 53 type 2 diabetes patients with fatty liver, 12 weeks oral, 0 week 58.4 ± 34.4", "value": "33.8 ± 22.9", "unit": "IU/L"}, {"measurement": "GPT, 12th week", "setting": "[2]; analysis 1: 53 type 2 diabetes patients with fatty liver, 12 weeks oral, 0 week 77.2 ± 55.9", "value": "44.0 ± 29.7", "unit": "IU/L"}, {"measurement": "GOT, change (0 to 12 weeks)", "setting": "[2]; [7]", "value": "24.7 ± 12.4", "unit": "IU/L"}, {"measurement": "GPT, change (0 to 12 weeks)", "setting": "[2]; [7]", "value": "33.2 ± 31.0", "unit": "IU/L"}, {"measurement": "Level of GOT after administration compared with before", "setting": "[2]; [8]", "value": "statistically significant lowered"}, {"measurement": "Level of GPT after administration compared with before", "setting": "[2]; [8]", "value": "statistically significant lowered"}, {"measurement": "GOT, 12th week", "setting": "[2]; analysis 2: 16 cases of type-2 diabetes with liver disorders (GOT, GPT≧51 IU/L), 0 week 133.3 ± 51.3", "value": "85.4 ± 40.9", "unit": "IU/L"}, {"measurement": "GPT, 12th week", "setting": "[2]; analysis 2: 16 cases of type-2 diabetes with liver disorders (GOT, GPT≧51 IU/L), 0 week 217.3 ± 94.1", "value": "80.2 ± 53.4", "unit": "IU/L"}, {"measurement": "GOT, change (0 to 12 weeks)", "setting": "[2]; [9]", "value": "47.8 ± 37.9", "unit": "IU/L"}, {"measurement": "GPT, change (0 to 12 weeks)", "setting": "[2]; [9]", "value": "137.0 ± 43.4", "unit": "IU/L"}, {"measurement": "GOT before vs after administration", "setting": "[2]; [10]", "value": "statistically significant lowering"}, {"measurement": "GPT before vs after administration", "setting": "[2]; [10]", "value": "statistically significant lowering"}, {"measurement": "Expression level of liver ACL (cRNA hybridized to rat ACL gene), Analysis 1", "setting": "[3]; Wistar rats fasted overnight, 50 mg/kg oral, no glucose, liver 1 h after, methylcellulose control 96.2", "value": 144.4}, {"measurement": "Expression level of liver ACL (cRNA hybridized to rat ACL gene), Analysis 2", "setting": "[3]; Wistar rats fasted overnight, 50 mg/kg oral, no glucose, liver 1 h after, methylcellulose control 459.3", "value": 543.6}, {"measurement": "Suppression of liver ACL mRNA level", "setting": "[3]; normal Wistar rats", "value": "no significant suppression"}, {"measurement": "Expression level of liver ACL (cRNA hybridized to rat ACL gene), Analysis 1", "setting": "[4]; Experiment 2 group 5, GK rats fasted overnight, 50 mg/kg oral with 1 g/kg glucose, liver 1 h after, GK controls 139.6", "value": 66.4}, {"measurement": "Expression level of liver ACL (cRNA hybridized to rat ACL gene), Analysis 2", "setting": "[4]; Experiment 2 group 5, GK rats fasted overnight, 50 mg/kg oral with 1 g/kg glucose, liver 1 h after, GK controls 452.5 / 416.7", "value": 189.9}, {"measurement": "Elevated liver ACL expression level", "setting": "[4]; GK rats, Experiment 2, groups 3, 4 vs 5", "value": "significantly suppressed and returned to the normal level"}, {"measurement": "Insulin level in portal vein", "setting": "[5]", "value": "transient increase"}, {"measurement": "Effect of hepatic cirrhosis on pharmacokinetics", "setting": "[6]; J. Clin. Pharmacol. 40:634 (2000), Drugs 60(3):607 (2000)", "value": "no significant effect"}, {"measurement": "Increase of total exposure", "setting": "[6]; subjects with mild hepatic impairment (Am J Health-Syst Pharm 58, 285 (2001))", "value": 30, "unit": "%"}]}
